Reference: BindingDB's records for patent WO2022076764 (BRISTOL-MYERS SQUIBB COMPANY, 2022)

Key:
[1] = target: T1, N-formyl peptide receptor 2 (Homo sapiens, UniProt P25090)
T1 sequence (P25090 whole entry): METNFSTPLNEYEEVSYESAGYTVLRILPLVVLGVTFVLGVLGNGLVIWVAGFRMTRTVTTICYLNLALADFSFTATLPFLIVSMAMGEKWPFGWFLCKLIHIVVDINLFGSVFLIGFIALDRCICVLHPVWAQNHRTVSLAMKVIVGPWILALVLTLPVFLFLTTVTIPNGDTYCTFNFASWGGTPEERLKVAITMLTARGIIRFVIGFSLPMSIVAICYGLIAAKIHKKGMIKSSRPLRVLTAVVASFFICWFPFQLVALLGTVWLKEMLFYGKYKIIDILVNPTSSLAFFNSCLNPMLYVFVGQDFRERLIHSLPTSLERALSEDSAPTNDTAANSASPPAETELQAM

fMet-Leu-Phe receptor = target: T2, fMet-Leu-Phe receptor (Homo sapiens, UniProt P21462)
T2 sequence (P21462 whole entry): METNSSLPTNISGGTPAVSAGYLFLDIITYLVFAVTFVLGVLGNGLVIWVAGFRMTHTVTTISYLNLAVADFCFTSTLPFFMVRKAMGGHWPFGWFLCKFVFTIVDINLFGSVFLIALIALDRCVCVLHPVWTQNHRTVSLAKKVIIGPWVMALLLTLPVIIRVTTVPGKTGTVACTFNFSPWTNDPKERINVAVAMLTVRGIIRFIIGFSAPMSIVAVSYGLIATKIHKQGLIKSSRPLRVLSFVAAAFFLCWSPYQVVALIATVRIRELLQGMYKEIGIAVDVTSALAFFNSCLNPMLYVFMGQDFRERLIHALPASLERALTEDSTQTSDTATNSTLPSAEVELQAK

| SMILES | EC50 [1] [nM] | EC50 (fMet-Leu-Phe receptor) [nM] |
| --- | --- | --- |
| COc1cc(F)c(-n2cc(Cc3nnc(C)o3)nc2NC(=O)c2ccc(OC(F)F)cc2)c(F)c1 [WO2022076764, Example 73] | 300 | 23 |
| COc1cc(F)c(-n2cc(C3CCC(O)CC3)nc2NC(=O)c2ccc(OC(F)F)cc2)c(F)c1 (centres undefined) [WO2022076764, Example 76] | 240 | 10 |
| COc1cc(F)c(-n2cc(Cc3ccccn3)nc2NC(=O)c2ccc(OC(F)F)cc2)c(F)c1 [WO2022076764, Example 78] | 870 | 56 |
| COc1cc(F)c(-n2cc(-c3ccn[nH]3)nc2NC(=O)c2ccc(OC(F)F)cc2)c(F)c1 [WO2022076764, Example 80] | 500 | 59 |

Further lines, results first:

| EC50 [1] [nM] | EC50 (fMet-Leu-Phe receptor) [nM] | SMILES |
| --- | --- | --- |
| 4200 | 81 | COc1cc(F)c(-n2cc(C3CNC3)nc2NC(=O)c2ccc(OC(F)F)cc2)c(F)c1 [WO2022076764, Example 79] |
| 5400 | 4 | COc1cc(F)c(-n2cc(C3CC(N)C3)nc2NC(=O)c2ccc(OC(F)F)cc2)c(F)c1 (centres undefined) [WO2022076764, Example 81] |
| 400 | 5 | COc1cc(F)c(-n2cc(C3CC(NS(C)(=O)=O)C3)nc2NC(=O)c2ccc(OC(F)F)cc2)c(F)c1 (centres undefined) [WO2022076764, Example 83] |
